Results published in ChEMBL document CHEMBL5634174, “Biological evaluation of sulfonate and sulfate analogues of lithocholic acid: A bioisosterism-guided approach towards the discovery of potential sialyltransferase inhibitors for antimetastatic study” (Bioorg Med Chem Lett, 2024).
Activity calls are given as the source filed them. The rule behind the calls is not given here.

Key:
[1] = target: Paxillin (Homo sapiens) (UniProt P49023); assay: Inhibition of paxillin phosphorylation at Y118 residue in human MDA-MB-231 cells incubated for 2 hrs by Western blot analysis; format: cell-based; conditions: dose 20-80 µM
Paxillin (Homo sapiens), sequence (P49023 whole entry): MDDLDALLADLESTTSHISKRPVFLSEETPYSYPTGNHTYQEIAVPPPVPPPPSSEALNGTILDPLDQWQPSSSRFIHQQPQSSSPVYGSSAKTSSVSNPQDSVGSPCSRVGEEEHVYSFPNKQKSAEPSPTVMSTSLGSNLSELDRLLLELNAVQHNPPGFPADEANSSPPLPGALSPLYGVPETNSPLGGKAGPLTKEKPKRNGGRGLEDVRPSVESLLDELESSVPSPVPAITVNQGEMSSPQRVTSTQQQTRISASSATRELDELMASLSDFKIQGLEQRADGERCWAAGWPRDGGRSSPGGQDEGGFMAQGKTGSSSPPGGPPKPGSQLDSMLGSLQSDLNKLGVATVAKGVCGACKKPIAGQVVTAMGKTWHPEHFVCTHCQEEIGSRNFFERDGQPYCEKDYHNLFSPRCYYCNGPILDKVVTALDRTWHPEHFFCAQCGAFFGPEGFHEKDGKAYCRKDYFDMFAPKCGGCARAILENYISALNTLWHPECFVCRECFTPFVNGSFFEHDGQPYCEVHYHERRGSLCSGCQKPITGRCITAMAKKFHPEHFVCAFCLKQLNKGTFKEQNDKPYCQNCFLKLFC

[2] = target: Paxillin (Homo sapiens) (UniProt P49023); assay: Inhibition of paxillin phosphorylation at Y118 residue in human MDA-MB-231 cells at 80 uM incubated for 2 hrs by Western blot analysis; format: cell-based
[3] = tested on: MDA-MB-231; assay: Antimigratory activity against human MDA-MB-231 cells at 60 uM incubated for 16 hrs by transwell migration assay; format: functional, cell-based
[4] = target: T1, Beta-galactoside alpha-2,6-sialyltransferase 1 (Homo sapiens, UniProt P15907); assay: Inhibition of recombinant human N-terminal His tagged ST6GAL1 (44 to 406 residues) by UPLC-based assay
T1 sequence (P15907 whole entry): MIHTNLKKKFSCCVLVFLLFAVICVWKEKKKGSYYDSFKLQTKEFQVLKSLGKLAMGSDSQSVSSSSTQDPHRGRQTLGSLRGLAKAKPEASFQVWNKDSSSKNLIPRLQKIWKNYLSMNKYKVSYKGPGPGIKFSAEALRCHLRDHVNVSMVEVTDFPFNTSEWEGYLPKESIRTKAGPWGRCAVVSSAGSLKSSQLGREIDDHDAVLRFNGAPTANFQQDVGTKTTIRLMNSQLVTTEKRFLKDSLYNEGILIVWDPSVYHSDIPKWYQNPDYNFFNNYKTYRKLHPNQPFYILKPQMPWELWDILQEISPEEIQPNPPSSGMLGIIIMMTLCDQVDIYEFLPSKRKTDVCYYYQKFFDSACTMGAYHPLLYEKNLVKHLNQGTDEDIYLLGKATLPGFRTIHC

[5] = target: T2, Integrin beta-3 (Homo sapiens) (UniProt P05106); assay: Inhibition of integrin beta-3 in human MDA-MB-231 cells assessed as decrease in sialylation level incubated for 48 hrs by Western blot analysis; format: cell-based; conditions: dose 20-80 µM
T2 sequence (whole entry): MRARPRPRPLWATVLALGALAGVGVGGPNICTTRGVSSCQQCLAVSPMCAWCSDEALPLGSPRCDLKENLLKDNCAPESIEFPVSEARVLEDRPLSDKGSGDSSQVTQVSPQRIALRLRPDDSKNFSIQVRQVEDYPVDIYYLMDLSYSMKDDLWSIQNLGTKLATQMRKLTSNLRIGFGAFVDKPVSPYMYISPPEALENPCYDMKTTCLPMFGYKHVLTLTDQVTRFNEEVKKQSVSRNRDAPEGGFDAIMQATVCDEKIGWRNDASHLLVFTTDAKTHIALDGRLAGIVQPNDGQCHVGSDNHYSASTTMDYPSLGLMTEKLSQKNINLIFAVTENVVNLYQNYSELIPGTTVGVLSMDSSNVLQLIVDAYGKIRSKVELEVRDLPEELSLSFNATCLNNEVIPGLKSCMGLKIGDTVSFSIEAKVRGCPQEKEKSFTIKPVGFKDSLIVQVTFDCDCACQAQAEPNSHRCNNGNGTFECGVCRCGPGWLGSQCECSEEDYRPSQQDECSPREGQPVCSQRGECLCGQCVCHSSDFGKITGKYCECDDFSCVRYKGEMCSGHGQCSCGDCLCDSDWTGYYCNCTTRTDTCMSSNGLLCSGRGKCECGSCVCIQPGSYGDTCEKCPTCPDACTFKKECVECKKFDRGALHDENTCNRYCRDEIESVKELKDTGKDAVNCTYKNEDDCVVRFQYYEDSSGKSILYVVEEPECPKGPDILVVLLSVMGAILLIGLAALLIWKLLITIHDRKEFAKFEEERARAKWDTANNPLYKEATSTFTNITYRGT

[6] = tested on: MDA-MB-231; assay: Effect on total FAK expression level in human MDA-MB-231 cells at 20 to 80 uM incubated for 2 hrs by Western blot analysis; format: functional, cell-based; conditions: dose 20-80 µM
[7] = target: T3, Sialyltransferase ST3Gal-I (Rattus norvegicus, UniProt Q6H8N0); assay: Inhibition of rat ST3GAL1 by UPLC-based assay
T3 sequence (Q6H8N0 whole entry): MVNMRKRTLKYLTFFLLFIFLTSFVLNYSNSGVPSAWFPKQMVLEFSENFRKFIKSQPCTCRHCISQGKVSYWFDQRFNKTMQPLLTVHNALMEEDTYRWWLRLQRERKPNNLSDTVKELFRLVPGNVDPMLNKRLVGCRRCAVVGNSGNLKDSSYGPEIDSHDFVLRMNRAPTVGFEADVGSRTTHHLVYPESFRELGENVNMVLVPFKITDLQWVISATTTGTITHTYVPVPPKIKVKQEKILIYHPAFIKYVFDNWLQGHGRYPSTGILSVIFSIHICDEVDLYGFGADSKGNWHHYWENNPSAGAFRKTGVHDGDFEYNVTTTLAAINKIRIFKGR

[8] = target: T4, Integrin beta-5 (Homo sapiens) (UniProt P18084); assay: Inhibition of integrin beta-5 in human MDA-MB-231 cells assessed as decrease in sialylation level incubated for 48 hrs by Western blot analysis; format: cell-based; conditions: dose 20-80 µM
T4 sequence (whole entry): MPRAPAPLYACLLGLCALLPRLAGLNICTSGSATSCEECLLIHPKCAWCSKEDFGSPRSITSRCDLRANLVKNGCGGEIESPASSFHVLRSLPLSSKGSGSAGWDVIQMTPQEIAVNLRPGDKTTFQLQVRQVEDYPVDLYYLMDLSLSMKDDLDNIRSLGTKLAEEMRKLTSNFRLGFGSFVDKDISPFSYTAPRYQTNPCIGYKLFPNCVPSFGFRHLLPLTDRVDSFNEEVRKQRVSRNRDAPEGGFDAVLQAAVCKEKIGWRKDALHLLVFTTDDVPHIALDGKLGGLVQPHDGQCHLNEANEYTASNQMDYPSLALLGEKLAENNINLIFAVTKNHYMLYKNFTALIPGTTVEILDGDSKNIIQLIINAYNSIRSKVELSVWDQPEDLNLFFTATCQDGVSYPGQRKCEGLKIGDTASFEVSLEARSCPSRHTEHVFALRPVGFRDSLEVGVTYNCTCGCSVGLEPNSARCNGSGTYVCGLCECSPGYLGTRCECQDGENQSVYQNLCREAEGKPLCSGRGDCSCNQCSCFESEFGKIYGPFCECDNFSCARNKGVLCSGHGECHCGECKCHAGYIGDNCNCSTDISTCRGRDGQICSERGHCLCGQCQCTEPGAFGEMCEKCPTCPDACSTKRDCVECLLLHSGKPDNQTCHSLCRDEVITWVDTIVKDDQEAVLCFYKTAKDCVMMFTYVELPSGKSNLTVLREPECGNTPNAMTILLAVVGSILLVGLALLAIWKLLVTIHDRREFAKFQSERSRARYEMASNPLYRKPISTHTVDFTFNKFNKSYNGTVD

[9] = target: Integrin beta-1 (Homo sapiens) (UniProt P05556); assay: Inhibition of integrin beta-1 in human MDA-MB-231 cells assessed as decrease in sialylation level incubated for 48 hrs by Western blot analysis; format: cell-based; conditions: dose 20-80 µM
Integrin beta-1 (Homo sapiens), sequence (P05556 whole entry): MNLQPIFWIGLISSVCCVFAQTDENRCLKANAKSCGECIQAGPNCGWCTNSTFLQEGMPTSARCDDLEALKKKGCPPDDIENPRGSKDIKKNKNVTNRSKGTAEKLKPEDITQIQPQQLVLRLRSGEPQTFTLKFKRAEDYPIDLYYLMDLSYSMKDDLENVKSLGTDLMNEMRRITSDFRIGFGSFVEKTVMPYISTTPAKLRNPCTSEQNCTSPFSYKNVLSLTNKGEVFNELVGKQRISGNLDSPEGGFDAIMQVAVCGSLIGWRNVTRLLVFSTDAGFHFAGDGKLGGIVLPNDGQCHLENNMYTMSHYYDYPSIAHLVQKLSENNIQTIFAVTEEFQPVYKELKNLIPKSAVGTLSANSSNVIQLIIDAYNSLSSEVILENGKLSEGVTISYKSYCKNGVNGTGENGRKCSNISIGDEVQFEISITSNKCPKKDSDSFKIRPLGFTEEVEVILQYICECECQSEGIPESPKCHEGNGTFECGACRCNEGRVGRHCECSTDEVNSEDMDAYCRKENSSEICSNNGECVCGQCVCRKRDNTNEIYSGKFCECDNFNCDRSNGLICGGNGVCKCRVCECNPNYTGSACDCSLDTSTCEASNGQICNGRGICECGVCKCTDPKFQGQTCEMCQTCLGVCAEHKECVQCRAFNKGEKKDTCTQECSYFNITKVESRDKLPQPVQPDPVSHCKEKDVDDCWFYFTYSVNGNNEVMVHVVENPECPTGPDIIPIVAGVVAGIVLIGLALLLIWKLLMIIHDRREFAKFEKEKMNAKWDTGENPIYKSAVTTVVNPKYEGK

[10] = target: T5, Sialyltransferase ST3Gal-I (Rattus norvegicus) (UniProt Q6H8N0); assay: Inhibition of rat ST3GAL1 at 1000 uM by UPLC-based assay relative to control
T5 sequence (whole entry): T3 sequence (Q6H8N0 whole entry)

[11] = tested on: MDA-MB-231; assay: Inhibition of cell invasion in human MDA-MB-231 cells assessed as reduction in cell adhesion to fibronectin at 60 uM incubated for 24 hrs; format: functional, cell-based

C[C@H](CCCOS(=O)(=O)O)[C@H]1CC[C@H]2[C@@H]3CC[C@@H]4C[C@H](O)CC[C@]4(C)[C@H]3CC[C@]12C
inhibition [1]: Dose-Dependent Effect
inhibition [2]: Active
Activity [3]: Active
IC50 [4]: 16.7 µM
Activity [5]: Dose-Dependent Effect
Activity [6]: inactive
IC50 [7]: > 1000 µM
Activity [8]: Dose-Dependent Effect
Activity [9]: Dose-Dependent Effect
inhibition [10]: 15%
inhibition [11]: Active
